Laboratory results reported in patent US20090042978A1, “Pharmaceutical Compositions Containing Nitrovinylfuran Derivatives for the Treatment of Leishmaniosis and Trypanosomosis” (CENTRO DE BIOACTIVOS QUIMICOS, priority 2005, published 2009).
In brackets after ≈: the same amount, converted by molar mass. Several values for one entry are separate records, joined by “and”; a condition that tells them apart may be missing. Equal entries are not always repeated. Where two headings read alike, the source gives them in different places.

Assays:
[1] = test system: L. donovani infantum promastigotes; experiment: In vitro activity against Leishmania promastigotes (infantum); type: cell-based; set-up: CP100: unit not given here; conditions: for IC50: Leishmania donovani, mean inhibitory concentration, read-out: CI50 (the source's name); for CP100: minimal parasiticidal concentration
Method: (§1) Mean inhibitory concentrations (Cl50%) against L. mexicana amazonensis, L. donovani infantum and L. braziliensis braziliensis promastigotes were determined according to the method described by Bodley A L et al (J Infect Dis 1995; 172(4):1157-9.). Minimal parasiticidal concentrations (CP100, minimal concentrations capable of abolishing the motility of all parasites in the culture) were also determined. Amphotericin B and Glucantime® were tested as reference drugs.

[2] = test system: trypomastigotes of T. cruzi; experiment: In vitro activity against Trypanosoma cruzi; type: cell-based; conditions: for IC50: Trypanosoma cruzi, T. cruzi trypomastigotes grown in rat myoblast cell line, read-out: CI50 (the source's name); for CP100: minimal concentration that immobilizes all parasites
Method: The in vitro activity of the β-nitrovinylfuran derivatives was tested against trypomastigotes of T. cruzi grown in a rat myoblast cell line. Minimal parasiticidal concentrations (minimal concentration that immobilizes all the parasites in the culture) and mean inhibitory concentrations (concentration that reduces the number of parasites to 50% of those found in the un-treated control cultures) were determined according to Buckner's method (Antimicrob Agents Chemother 1996; 40(11):2592-7).

[3] = test system: L. mexicana amazonensis promastigotes; experiment: In vitro activity against Leishmania promastigotes (amazonensis); type: cell-based; set-up: CP100: unit not given here; conditions: for IC50: Leishmania mexicana, mean inhibitory concentration, read-out: CI50 (the source's name); for CP100: minimal parasiticidal concentration abolishing motility of all parasites
Method: as §1

[4] = Toxicological studies (LD50, LD0, MTD), intraperitoneal; type: in vivo, female Balb/c mice; conditions: for MTD at 14 days: female, Balb/c; for LD0: maximal non-lethal dose calculated from dose-mortality curves, single i.p. injection; for LD50: single intraperitoneal injection, female Balb/c mice
Method: The same animal model used for in vivo anti-leishmanial tests was used to perform comparative toxicological studies of the β-nitrovinylfuran derivatives. The main excipient of the compositions used with this purpose was the sunflower oil. The mean lethal doses (LD50) of each β-nitrovinylfuran derivative and Amphotericin B were estimated in female Balb/c mice (18-20g body weight), treated by a single intraperitoneal injection. The maximal non-lethal doses (LD0) were calculated from the dose-mortality curves. The maximal tolerated doses (MTD, maximal dose causing neither mortality nor body weight losses over 10% respect to the initial weight) by repeated intraperitoneal administration every 12 or 24 h during 14 days were determined as well.

[5] = test system: L. braziliensis braziliensis promastigotes; experiment: In vitro activity against Leishmania promastigotes (braziliensis); type: cell-based; set-up: CP100: unit not given here; conditions: for IC50: Leishmania braziliensis, mean inhibitory concentration, read-out: CI50 (the source's name); for CP100: minimal parasiticidal concentration
Method: as §1

[6] = test system: L. m. amazonensis; experiment: Experimental cutaneous leishmaniosis, early stage lesions treated every 24 h; type: in vivo, Balb/c mice; conditions: for lesion evolution versus controls: during and after 14 days treatment, Amphotericin B 1 mg/Kg; for lesion evolution versus controls / lesion growth: D 5 mg/Kg; for lesion growth: i.p. daily, F 50 mg/Kg
Method: (§2) Balb/c mice were experimentally infected with L. m. amazonensis promastigotes by intradermal injection in the footpads and six weeks later they were treated with the test compounds by intraperitoneal route. The product 2-bromo-5-(2-bromo-2-nitrovinyl)-furan was administered at a dose of 5 mg/Kg; the 2-bromo-5-(2-methyl-2-nitrovinyl)-furan, at 50 mg/Kg and Amphotericin B, at 1 mg/Kg. Animals were daily dosed for 14 days. Miglyol 810, the vehicle used for the β-nitrovinylfuran derivatives, was similarly administered to a group of mice.

[7] = test system: L. m. amazonensis; experiment: Experimental cutaneous leishmaniosis, chronic lesions treated every 12 h; type: in vivo, Balb/c mice; conditions: for effectiveness on chronic lesions: first week, F 50 mg/Kg twice a day, Amphotericin B 5 mg/Kg every other day; for lesion size: by the end of treatment (14 days)
Method: Mice developed chronic leishmanial lesions at eighteen weeks post-infection. Lesions were ulcerated and covered with a thick crust. The average dorso-plantar diameter of the infected foot was 1.23±0.24 cm and the lateral diameter was 1.24±0.19 cm. At that stage the treatment started twice a day with either 2-bromo-5-(2-bromo-2-nitrovinyl)-furan at 2 mg/Kg; 2-bromo-5-(2-methyl-2-nitrovinyl)-furan at 50 mg/Kg or Amphotericin B at 5 mg/Kg every other day. A control group formed by infected non-treated mice was also included in the experiment. All drugs were administered by intraperitoneal route for 14 days. […] Amphotericin B was not effective, since neither the dorso-plantar nor the lateral diameters differed statistically from the lesions of the control group (P>0.05).

[8] = test system: Leishmania promastigotes; experiment: In vitro activity against Leishmania promastigotes (three species); type: cell-based
Method: as §1

[9] = test system: cutaneous leishmaniosis; experiment: Treatment of human cutaneous leishmaniosis, topical ointment; type: in vivo; conditions: oily ointment 0.15%, topical once a day, 21 days
Method: One hundred patients with parasitological diagnose of cutaneous leishmaniosis were treated. Patients were topically treated, once a day, for 21 days with an oily ointment containing 0.15% 2-bromo-5-(2-bromo-2-nitrovinyl)-furan as active ingredient and petrolatum as the main excipient.

[10] = test system: L. m. amazonensis; experiment: Experimental cutaneous leishmaniosis, early stage lesions treated every 12 h; type: in vivo, Balb/c mice; conditions: for activity compared with Amphotericin B / lesion growth rate: i.p. every 12 h; for lesion growth rate: D 2 mg/Kg, F 100 mg/Kg
Method: as §2
The experiment was essentially carried out in a similar way as the one described above. However, 2-bromo-5-(2-bromo-2-nitrovinyl,-furan was administered at a dose of 2 mg/Kg and 2-bromo-5-(2-methyl-2-nitrovinyl)-furan at 100 mg/Kg. Treatments were administered by intraperitoneal route, but every 12 h instead of 24 h.

[11] = mouse, in vivo, ip, repeated intraperitoneal administration every 24 h during 14 days, read-out: MTD (every 24 h)
[12] = mouse, in vivo, ip, read-out: LD50

| Compound | IC50 [1] [µg/mL] | CP100 [1] | IC50 [2] | CP100 [2] | IC50 [3] [µg/mL] | CP100 [3] | MTD at 14 days [4, 11] [mg/kg] | LD0 [4] [mg/kg] | LD50 [4, 12] [mg/kg] | IC50 [5] [µg/mL] | CP100 [5] | other results |
| --- | --- | --- | --- | --- | --- | --- | --- | --- | --- | --- | --- | --- |
| O=[N+]([O-])C=Cc1ccco1 [A, 2-(2-nitrovinyl)-furan] | 0.35 (≈ 2.52 µM) | 1.75 | 1.8 µg/mL and 12.6 µM | 10.0 μg/mL and 71.9 μM | 0.66 (≈ 4.74 µM) | 1.12 | 55 | 50 | 68 | 0.2 (≈ 1.44 µM) | 1.29 | – |
| C[C@@H]1[C@H](O)[C@@H](C)/C=C/C=C/C=C/C=C/C=C/C=C/C=C/[C@H](O[C@@H]2O[C@H](C)[C@@H](O)[C@H](N)[C@@H]2O)C[C@@H]2O[C@](O)(C[C@@H](O)C[C@@H](O)[C@H](O)CC[C@@H](O)C[C@@H](O)CC(=O)O[C@H]1C)C[C@H](O)[C@H]2C(=O)O [Amphotericin B, reference compound] | – | 0.016 | – | – | – | 0.051 | – | 15 | – | – | 0.028 | lesion evolution versus controls [6]: evolved similarly to controls; lesion growth rate after discontinuation ([6]; first week after discontinuation of treatment, 1 mg/Kg): remarkable decrease of lesion growth rate; LD50 [4]: 22 mg/kg; dorso-plantar diameter versus control ([7]; by the end of treatment): incremented their lesion dorso-plantar diameters as controls; lateral diameter versus control ([7]; by the end of treatment): the change was not different; effectiveness on chronic lesions [7]: not effective; activity relative to the β-nitrovinylfuran derivatives [8]: more active than the β-nitrovinylfuran derivatives |
| O=[N+]([O-])C=Cc1ccc(Br)o1 [B, 2-bromo-5-(2-nitrovinyl)-furan] | 0.23 (≈ 1.06 µM) | 0.51 | 1.2 µg/mL and 5.7 µM | 3.3 μg/mL and 15.3 μM | 0.45 (≈ 2.06 µM) | 2.08 | 20 | 45 | 73 | 0.18 (≈ 0.826 µM) | 0.61 | – |
| O=C(Cn1ccnc1[N+](=O)[O-])NCc1ccccc1 [Benznidazole, reference compound] | – | – | 0.9 µg/mL and 3.3 µM | >40 μg/mL and >154 μM | – | – | – | – | – | – | – | – |
| O=[N+]([O-])C(Br)=Cc1ccco1 [Compound C, 2-(2-bromo-2-nitrovinyl)-furan] | 0.36 (≈ 1.65 µM) | 2.01 | 3.7 µg/mL and 16.9 µM | 10.0 μg/mL and 45.9 μM | 0.63 (≈ 2.89 µM) | 1.77 | – | 35 | 51 | 0.25 (≈ 1.15 µM) | 1.25 | – |
| O=[N+]([O-])C(Br)=Cc1ccc(Br)o1 [D, 2-bromo-5-(2-bromo-2-nitrovinyl)-furan] | 0.35 (≈ 1.18 µM) | 0.86 | 4.1 µg/mL and 13.9 µM | 10.0 μg/mL and 33.7 μM | 0.25 (≈ 0.842 µM) | 1.53 | 5 | 15 | 24 | 0.26 (≈ 0.876 µM) | 0.49 | lesion evolution versus controls [6]: remained for two other weeks after treatment had finished; lesion growth ([6]; first week of treatment): minimal lesion growth; side effects [9]: did not evidence any side effect that impeded the continuation of therapy; patients with total cure of the cutaneous lesions ([9]; one hundred patients): 90%; MTD at 14 days ([4]; mouse, in vivo, ip, repeated intraperitoneal administration every 12 h during 14 days, read-out: MTD (every 12 h)): 2 to 3 mg/kg; dorso-plantar diameter versus control ([7]; by the end of treatment): significantly different; lesion size [7]: decrease of lesion size; dorso-plantar diameter of the infected foot ([7]; first week of treatment, P<0.05 vs control): decrease of the dorso-plantar diameter; lateral diameter of the lesions ([7]; first week of treatment, P>0.05): comparable to the diameter of control mice; lesion size ([10]; first week of treatment, 2 mg/Kg i.p. every 12 h, P<0.001 vs control): decreased during the first week of treatment; activity compared with Amphotericin B [10]: higher activity than Amphotericin B; lesion growth rate [10]: significantly lower compared to controls; lesion size ([10]; seven days after finishing treatment, P<0.05): smaller than those of controls |
| CC(=Cc1ccco1)[N+](=O)[O-] [E, 2-(2-methyl-2-nitrovinyl)-furan] | 0.31 (≈ 2.02 µM) | 1.27 | 4.7 µg/mL and 31 µM | 30.0 μg/mL and 196.1 μM | 0.34 (≈ 2.22 µM) | 3.49 | 60 | 65 | 80 | 0.35 (≈ 2.29 µM) | 4.84 | – |
| CC(=Cc1ccc(Br)o1)[N+](=O)[O-] [F, 2-bromo-5-(2-methyl-2-nitrovinyl)-furan] | 0.2 (≈ 0.862 µM) | 0.62 | 5.3 µg/mL and 23 µM | 30.0 μg/mL and 129.3 μM | 0.2 (≈ 0.862 µM) | 1.42 | 100 | 200 | 246 | 0.24 (≈ 1.03 µM) | 1.32 | lesion size change ([6]; first week of treatment, 50 mg/Kg i.p. daily): small decrease in lesion size; lesion growth ([6]; first week of treatment): minimal lesion growth; lesion size [7]: ineffective; effectiveness on chronic lesions [7]: did not prove to be effective; activity compared with Amphotericin B [10]: higher activity than Amphotericin B; lesion growth rate [10]: significantly lower compared to controls |
| meglumine antimoniate [Glucantime ®, reference compound] | – | >4250 | – | – | – | >4250 | – | – | – | – | >4250 | activity relative to the β-nitrovinylfuran derivatives [8]: significantly less active |
